Results from publication PMC5303821, “Major sulfonate transporter Soa1 in Saccharomyces cerevisiae and considerable substrate diversity in its fungal family” (Nature Communications, 2017).
Values belong to the molecule of their own block, whether it stands above or below them.

How the values were obtained:
Soa1 (YIL166C) = target: T1, Soa1 (YIL166C) (Saccharomyces cerevisiae, UniProt P40445); assay: growth rate of sul1 sul2 deletion strain (Monod fit), not direct uptake; assay type: cell-based; details: cell growth constant, not transport Km
T1 construct: full-length, native SOA1 locus, in sulfur-starved S. cerevisiae cells
T1 sequence (P40445 1-542): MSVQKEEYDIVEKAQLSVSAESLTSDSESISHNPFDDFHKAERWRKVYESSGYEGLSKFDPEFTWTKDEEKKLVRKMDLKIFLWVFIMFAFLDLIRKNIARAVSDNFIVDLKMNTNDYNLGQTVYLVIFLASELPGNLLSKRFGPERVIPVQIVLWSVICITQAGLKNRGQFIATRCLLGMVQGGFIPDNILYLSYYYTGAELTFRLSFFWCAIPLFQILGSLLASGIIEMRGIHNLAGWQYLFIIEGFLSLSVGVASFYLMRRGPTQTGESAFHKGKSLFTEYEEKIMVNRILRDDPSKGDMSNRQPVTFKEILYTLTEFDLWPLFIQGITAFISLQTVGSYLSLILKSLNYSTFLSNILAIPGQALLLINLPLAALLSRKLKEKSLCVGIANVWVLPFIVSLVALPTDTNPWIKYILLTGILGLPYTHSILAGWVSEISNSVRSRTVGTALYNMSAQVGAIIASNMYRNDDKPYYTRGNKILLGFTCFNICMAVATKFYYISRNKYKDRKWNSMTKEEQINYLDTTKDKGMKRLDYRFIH

[1] = substrate: O=S(=O)(O)O; assay: radiolabelled uptake in sulfur-starved cells; assay type: cell-based, Aspergillus nidulans; details: pH 6.5 Bis-Tris, 30 °C, 1 min uptake, labelled compound ([35S]), H+ symport, sul1 sul2 soa1 deletion background

Ks (half-velocity constant for growth) (Soa1 (YIL166C); pH 6.5, sulfite as sole sulfur source): 67.4 ± 8.3 µM
Molecule: O=S(O)O [sulfite]

Ks (half-velocity constant for growth) (Soa1 (YIL166C); pH 6.5, thiosulfate as sole sulfur source): 75.8 ± 6.0 µM
Molecule: O=S(=O)(O)S [thiosulfate]

B1: AstA (Aspergillus nidulans) (protein)
chain: MADYKSTNPTVENKDDVAVPEYVIDWTLEEETKAKRKLDLMIMPILTLGFFCLQLDRGNMANAITDNFMEDVGINQDQFNVGQQMLSLGIVLTEIPSNMILYRVGPGKWLTLQLFLFGIVSTFQAFQRGYGAFIATRFLLGITESGFIPGGLWTLSTWYTRDETAKRVMIFYFGNQIGQASAKLLAYGILHMRGVGGQSGWFWLFALMGSFTVFSGFIFGFFLLDSFKNPHSTFLPKMSRFTERELHILQTRVLLDDPMKGKKKRKIGLGAFKRAFTDWRIWVHFLITLSNNGPQRAFDTYAPSIVTSFGFGRLVSNAMAAVGLFLQVPVSFAFSWVSDHYNRRGETVMLGFFCHLLGYIFNRTFTDVNLRGVRYFGVVWTQTFGTFSHPLNIAWLSLTCKDSEQRALAMAGVIMNANIAGIYGAQIFRSDDKPLYRRGFSVALSVLAVGLVLAIVRYVDTMIHRRRKLQAVEDGSEQDTDADHKLT
notes: full-length, codon-optimized synthetic gene in SOA1 locus of S. cerevisiae sul1 sul2 soa1 deletion strain
Km [1]: 7.50 ± 0.53 µM
